Reference: PMC7288058, “Modulating the Properties of Fe(III) Macrocyclic MRI Contrast Agents by Appending Sulfonate or Hydroxyl Groups” (Molecules, 2020)
Values joined by “and” are separate entries in the source; they are usually repeats but may differ in a detail not shown here. Identical values can stand only once.

What was measured:
[1] = pH-potentiometric titrations of the intact Fe(III) complexes; assay type: physicochemical; settings: potentiometric titration, 25 °C, 0.10 M NaCl, 1–2 mM meglumine
Description: The pH-potentiometric titrations of the intact Fe(III) complexes were studied to determine the equilibrium constants for deprotonation of ligand groups such as the hydroxyl pendants or water ligand. […] For Fe(L1)(OH2) and Fe(L3)(OH2), either an alcohol pendant group or water ligand might ionize but, for Fe(L2), we only consider alcohol pendant groups. […] Ionization of the water ligand at near neutral pH cannot be ruled out, but is not considered to be likely based on prior studies [19]. […] The group that produces this ionization is not likely to be a bound water or hydroxyl group given that the coordination sphere is very similar to that of Fe(L3)(OH2). […] A weak hydrogen bonding interaction to a hydroxyl pendent or bound water might produce such an environment.
All solutions were prepared by using carbonate-free water.
Fe(L1)(OH2): The solution contained 0.527 mM Fe(III) complex added as the chloride salt, 1.00 mM meglumine, 0.100 M NaCl, and 3.72 mM HCl to decrease the pH of the solution to pH 3 in total volume of 20.00 mL. The solution was titrated with a 98.83 mM NaOH solution. Then, 5.00 µL aliquots of the NaOH solution were added over 60 s with an interval of 300 s using a Nexus 3000 High Flow Syringe Pump from Chemyx Inc (Stafford, TX, USA) equipped with a 10-mL Hamilton gastight syringe.
Fe(L2): The solution contained 0.75 mM Fe(III) complex added as the chloride salt, 2.00 mM meglumine, 0.100 M NaCl, and 6.00 mM HCl to decrease the pH of the solution to pH 3 in total volume of 25.00 mL. The solution was titrated with a 94.86 mM NaOH solution. Then, 5.00 µL aliquots of the NaOH solution were added over 60 s with an interval of 300 s using a Nexus 3000 High Flow Syringe Pump from Chemyx Inc (Stafford, TX) equipped with a 10-mL Hamilton gastight syringe.
In all fits of the data, meglumime was used as a third reagent, and the equilibrium equation corresponding to its ionization was added to the model data fit as determined from separate titrations. The titration was completed under Ar(g) at 25 °C. The titrations were monitored from pH 3 to pH 11. Equilibrium constants for all complexes were determined by fitting the data using [sequence] 2013 Version 6.0.1. Speciation diagrams were plotted by utilizing HySS Version 4.0.31.

[2] = 1-octanol/water partition coefficient (log P) by ICP-MS; assay type: physicochemical; settings: 20 mM HEPES pH 7.4, 100 mM NaCl
Description: To compare the lipophilicity of the complexes, the 1-octanol/water partition coefficients (log P) were determined.
Fe(III) complex solutions (0.500 mM) were prepared in 1.00 mL of H2O with 20.0 mM HEPES buffer (pH 7.4) and 100.0 mM NaCl. 0.500 mL of Fe(III) complex solution and 0.500 mL of 1-octanol was prepared. The mixture was shaken for 24 h, then centrifuged at 13,000 rpm for 1 min. Then, the solution was allowed to stand for 1 h. Iron concentration in the aqueous layer before and after mixing with 1-octanol was determined by ICP-MS. […] (3) logP=log(Co/Cw).

[3] = biological target: T1, human serum albumin (HSA) (Homo sapiens, UniProt P02768); experiment: Binding to human serum albumin by ultrafiltration / ICP-MS; assay type: in vitro ADME; settings: 0.4 mM complex, HSA 4.5% (w/v) (0.7 mM), 20 mM HEPES pH 7.4, 100 mM NaCl, 37 °C, 20 min
T1 construct: Albumin from human serum (fatty acid free) was purchased from Sigma-Aldrich; purchased Sigma-Aldrich; host or cells: purified from human serum
T1 sequence (P02768 25-609): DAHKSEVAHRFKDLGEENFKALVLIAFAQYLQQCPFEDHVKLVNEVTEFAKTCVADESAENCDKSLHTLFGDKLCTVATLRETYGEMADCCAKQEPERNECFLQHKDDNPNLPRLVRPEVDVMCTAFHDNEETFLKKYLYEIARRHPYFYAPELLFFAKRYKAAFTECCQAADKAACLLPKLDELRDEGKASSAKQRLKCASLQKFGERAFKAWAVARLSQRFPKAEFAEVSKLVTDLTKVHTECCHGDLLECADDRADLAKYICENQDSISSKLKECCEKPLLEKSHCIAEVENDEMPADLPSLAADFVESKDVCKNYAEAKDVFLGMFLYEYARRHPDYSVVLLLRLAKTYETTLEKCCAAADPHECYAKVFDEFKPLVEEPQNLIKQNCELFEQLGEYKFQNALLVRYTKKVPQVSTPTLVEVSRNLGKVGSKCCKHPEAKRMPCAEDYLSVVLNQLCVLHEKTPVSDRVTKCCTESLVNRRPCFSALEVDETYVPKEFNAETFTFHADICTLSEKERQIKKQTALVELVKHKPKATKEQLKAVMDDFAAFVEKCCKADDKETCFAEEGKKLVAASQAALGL
Description: Binding of the Fe(III) complexes to human serum albumin (HSA) was studied by using ultrafiltration across a MW 5000 cutoff membrane. The solutions containing HEPES buffer (pH 7.4) and salt NaCl were incubated at 37 °C for 20 min. Solutions contained 0.4 mM Fe(III) complex and 4.5 % (w/v) HSA (0.7 mM). The binding percentages were measured by using ICP-MS to analyze the Fe concentration in the unbound complex solutions after HSA incubation (Table 1). The protein binding for Fe(L3)(OH2) was higher (75%) than for Fe(L1)(OH2) (37%) or Fe(L2) (11%).
The molecular weight of 66,435 Da was used to determine the molar concentrations of HSA. Fe(III) complex (0.400 mM) solutions were incubated with 4.5% (w/v) HSA in 0.100 M NaCl and 20.0 mM HEPES buffer (pH 7.4). All solutions were incubated at 37 °C for 20 min [42]. Aliquots (0.300 mL) were placed in ultra-centrifugal filter units with a 5-kDa membrane and centrifuged at 3500× g for 10 min. The filtrates were used to determine Fe concentration from digested unbound Fe(III) complexes by using ICP-MS.

[4] = Kinetic inertness / dissociation monitored by UV-Vis absorbance; assay type: physicochemical; settings: 100 mM HCl, 37 °C
Description: The complexes have electronic absorbance bands at 325 nm and 330 nm with extinction coefficients ranging from 1570 M^−1∙cm^−1 to 3800 M^−1∙cm^−1 (Figures S16–S21, Table S2, Supplementary Materials). These absorbance peaks were monitored to study the dissociation of the complexes in 100 mM HCl acid solution, or in solutions containing 25 mM hydrogen carbonate and 0.40 mM hydrogen phosphate at 37 °C. […] In acidic solution (100 mM HCl), the dissociation of Fe(L1)(OH2) was estimated as 18.1% over 24 h and 53.6% over 72 h based on absorbance changes. For comparison, the dissociation of the Fe(L2) complex in acidic solution (100 mM HCl) was 7.9% over 48 h, and the dissociation of Fe(L3)(H2O) was 14% over 24 h and 38% over 72 h.
Absorbance of Fe(III) complexes was measured from 200–800 nm over a period of 48 and 72 h. A Peltier temperature controller was used to keep the temperature at 37 °C. The sample solutions contained 0.200 mM Fe(III) complex. Solutions for kinetic inertness experiments contained 25.0 mM NaHCO3, […] Na2HPO4, and 10.0 mM HEPES buffer (pH 7.4). Acidic solutions for the kinetic inertness experiments contained 0.10 M HCl. For each of these experiments, extinction coefficients were determined by using by using the Beer–Lambert law as given in Table S2 (Supplementary Materials).

[5] = test system: Balb/c mice; experiment: Dynamic T1-weighted MRI in mice after tail vein injection (4.7 T); assay type: in vivo
Excerpt: The two new Fe(III) complexes, Fe(L1)(OH2) and […], and the Gd(III) agent, Gd(DOTA), were studied in Balb/c mice on a small animal 4.7-T MRI scanner upon tail vein injection of the agent (Figure S24, Supplementary Materials). […] Biodistribution and pharmacokinetic clearance of the complexes in mice were monitored by using dynamic MRI.
In vivo imaging studies with the Fe(III) complexes were studied on at 4.7 T Bruker preclinical MRI in mice (BABC/cJ, Jackson Laboratory) in accordance with approved Institutional Animal Care and Use Committee (IACUC) protocols. The samples with a concentration of 0.050, 0.100, and 0.200 mmol [Fe]/kg. The Fe(III) complex stock solutions were adjusted to pH 7.2 by addition of meglumine and were injected intravenously via tail vein. MR data were recorded continuously for up to 1 h. Distribution studies and clearance kinetics were studied by using MR data acquired over several time points for up to 1 h, and additionally at 4 h and 24 h. For comparison, The Food and Drug Administration (FDA)-approved MRI contrast agent gadopentetate dimeglumine (Gd(DTPA), Magnevist®) and gadoterate meglumine (Gd(DOTA), Dotarem®) were injected at 50.0 μmol [Gd]/kg into separate group of mice and imaged as above.

[6] = Aqueous solubility (observations); assay type: physicochemical; settings: for aqueous solubility: words

SMILES | Log K1 (pKa2) [1] | Log K2 (pKa1) [1] | Log P [2] | HSA Binding (%) [3] | dissociation in acidic solution ([4]; over 24 h, estimated from absorbance changes) [%] | dissociation in acidic solution ([4]; over 72 h, estimated from absorbance changes) [%] | kidney contrast enhancement in T1-weighted images ([5]; 0.20 mmol/kg, 5 min post-injection) | clearance pathway ([5]; Balb/c mice, dynamic MRI) | tolerability in mice ([5]; mouse, in vivo) | aqueous solubility [6] | dissociation in acidic solution ([4]; over 48 h) [%] | T1-weighted contrast enhancement compared with other agents ([5]; healthy mouse, 0.05 mmol/kg, kidneys/blood, up to 45 min) | solubility ([6]; pH 6–7, concentration needed for 17O-NMR) [mM]
C[C@H]([O-])CN1CCN(CCCS(=O)(=O)[O-])CCN(C[C@H](C)O)CC1.O.[Fe+3] [Fe(L1)(OH2)] | 7.55 ± 0.08 | 3.39 ± 0.17 | −1.67 | 37% and 36.8 ± 0.2% | 18.1 | 53.6 | Enhancement of kidney contrast was observed | cleared predominately by the renal system | tolerated well | excellent aqueous solubility |  |  | 
C[C@H]([O-])CN1CCN(C[C@H](C)O)CCN(C[C@H](C)O)CC1.[Fe+3] [Fe(L2)] | 11.78 ± 0.11 | 6.57 ± 0.05 | −1.60 ± 0.1 | 11% and 11.2 ± 2.8% |  |  |  |  |  | moderate solubility | 7.9 | slightly more enhanced contrast in kidneys and blood than Fe(L1)(OH2) or the Gd(III) complexes | < 10
